From US5047502A, “Gastrin releasing peptide antagonist” (Merck and Co., Inc., priority 1989, dated 1991)
Read-outs that look alike come from different tables or passages of the source. Residues, ends and D or L forms follow the SMILES beside them. No end group written: not given here. *: point of attachment. OBn = c1ccc(CO*)cc1; X1 = CCCCCO*; OPr = CCCO*; X2 = CCCCO*

Columns and labels:
GRP receptor = target: T1, GRP receptor (Mus musculus, UniProt P21729); assay: Binding inhibition of radiolabelled GRP (Procedure A); conditions: for EC50: [Antagonist] reducing specific binding of 7 nM [3H-Phe15] GRP 15-27 to 50%, Swiss 3T3 cell monolayers
T1 construct: Swiss 3T3 fibroblasts were used in these tests as the source of GRP receptor; endogenous in cells; host or cells: Swiss 3T3 fibroblasts (from Dr. K. Brown, Institute of Animal Physiology, Cambridge, U.K.)
Description: Swiss 3T3 cells, obtained from Dr. K. Brown (Institute of Animal Physiology, Cambridge, U.K.). The cells were grown to confluency in Costar 12-well plates containing DMEM (Gibco) supplemented with 10% fetal bovine serum, 2 mM glutamine and 1% penicillin-streptomycin. The cells were washed twice with binding buffer [1:1 DMEM:Waymouths MB752/1 medium, plus 1 mg/ml BSA (Fraction V, Calbiochem)]. The antagonist was dissolved in 10 mM HCl, and diluted to the appropriate concentration in binding buffer. The antagonist was then added to the cells, followed by radiolabelled GRP at a final concentration of 7 nM. After 30 minutes incubation at 37° C., the supernatant liquid was removed and the cell monolayer rinsed four times with washing buffer (150 mM NaCl, 20 mM Na2 HPO4, 5 mM KCl, 1.8 mM KH2 PO4, 1 mg/ml BSA). The cells were then lysed with 1 ml/well of lysis buffer (1% Triton X-100, 0.1% BSA), and the solution was aspirated into scintillation vials for counting. Each data point was collected in triplicate.
Binding Inhibition: [Antagonist] which reduces the specific binding of 7 nM [^3 H-Phe^15 ] GRP 15-27 to 50% of the level observed in the absence of antagonist. Assay performed in Swiss 3T3 cell monolayers.

Swiss 3T3 cells [1] = assay type: cell-based; conditions: for EC50: 3 h
Description: Swiss 3T3 cells were grown in monolayer culture in 24-well plates (Costar) in serum-free DMEM for 48 hours, at which time the GRP or a GRP homologue, the antagonist and 23 nM ^3 H-thymidine were added. […] The cells were harvested with a Skatron filter apparatus, and the filters counted in a scintillation counter.
Mitogenic Inhibition: [Antagonist] which reduces the uptake of ^3 H-thymidine caused by 7 nM [Nle^27 ] GRP 15-27 to 50% of the level observed in the absence of antagonist. […] GRP 1-27 as the mitogen. Assay performed on Swiss 3T3 monolayers.

H345 SCLC cells = assay: Stimulation of Ca2+ release in SCLC (Procedure D); assay type: cell-based; conditions: 100 nM GRP, read-out: [Ca2+]i in SCLC IC50
Description: Following the procedure of Heikkila et al., J. Biol. Chem. 262 16456 (1987), approximately 1×10^8 H345 SCLC cells, maintained in RPMI-1640 (Ro) medium supplemented with selenium, insulin, and transferrin, were harvested by settling and washing with Ro. They were then resuspended in 2 ml Ro, to which 1.2 nmol Fura-2/AM per 10^6 cells was added. After a 15 minute incubation at 37° C., the cells were diluted to 10 ml with Ro and incubated for 1 hour at 37° C. The cells were then centrifuged and resuspended in HEPES-saline (140 mM NaCl, 5 mM KCl, 5 mM glucose, 1 mM CaCl2, 1 mM MgCl2, 20 mM HEPES, pH 7.4) at a density of 2.5-5×10^6 cells/ml. The cells were kept on ice for up to 2 hours before being used. Ca^2+ measurements were performed at 37° C. in an Aminco SPF-500 fluorimeter. The excitation wavelength was 340 nm, the emission wavelength 510 nm. Two ml of cell suspension was periodically resuspended in a 3 ml plastic cuvette. They were equilibrated at 37° C. for at least 5 minutes before data was collected. After a stable baseline was established, a mixture of the compound of interest an 100 nM GRP was added, and data was collected for approximately 5 minutes. At that time, a challenge dose of GRP was added, and data was collected for an additional 5 minutes. […] Baseline fluorescence was measured after the subsequent addition of 40 μl 2M Tris (pH 9.5) and 64 μl 0.2M EGTA.

Swiss 3T3 cells [2] = assay type: cell-based; conditions: for EC50: 3 h; remark: listed apart in the source
Description: Swiss 3T3 cells were grown in monolayer culture in 24-well plates (Costar) in serum-free DMEM for 48 hours, at which time the peptide being tested and 23 nM ^3 H-thymidine were added. […] The cells were harvested with a Skatron filter apparatus, and the filters counted in a scintillation counter. Mitogenic Stimulation: [Agonist] which stimulates uptake of ^3 H-thymidine to 50% of the maximal level caused by [Nle^27 ] GRP 15-27. Assay performed on Swiss 3T3 monolayers.

[3] = assays of example 2 repeated, unit inferred

T1 sequence (P21729 whole entry): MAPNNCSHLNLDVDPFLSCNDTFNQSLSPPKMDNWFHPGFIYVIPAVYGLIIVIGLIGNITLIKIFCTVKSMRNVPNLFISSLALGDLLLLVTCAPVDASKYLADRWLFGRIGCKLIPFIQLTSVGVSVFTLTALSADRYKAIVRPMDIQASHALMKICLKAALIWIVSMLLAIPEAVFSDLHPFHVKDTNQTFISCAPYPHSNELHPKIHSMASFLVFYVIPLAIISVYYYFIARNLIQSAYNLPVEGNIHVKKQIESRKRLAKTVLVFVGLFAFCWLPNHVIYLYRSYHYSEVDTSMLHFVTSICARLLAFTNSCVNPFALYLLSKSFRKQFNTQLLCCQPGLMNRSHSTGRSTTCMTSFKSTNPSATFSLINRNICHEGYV

CCCOC(=O)[C@H](CC(C)C)NC(=O)[C@H](Cc1c[nH]cn1)NC(=O)CNC(=O)[C@@H](NC(=O)[C@H](C)NC(=O)[C@H](Cc1c[nH]c2ccccc12)NC(=O)[C@H](Cc1c[nH]cn1)NC(C)=O)C(C)C [AcHisTrpAlaValGlyHisLeu--O(CH2)2 CH3] (Ac-HWAVGHL-OPr)
IC50 (GRP receptor; [3]): 3.5 nM

CCCCOC(=O)[C@H](CC(C)C)NC(=O)[C@H](Cc1c[nH]cn1)NC(=O)CNC(=O)[C@@H](NC(=O)[C@H](C)NC(=O)[C@H](Cc1c[nH]c2ccccc12)NC(=O)[C@H](Cc1c[nH]cn1)NC(C)=O)C(C)C [AcHisTrpAlaValGlyHisLeu--O(CH2)3 CH3] (Ac-HWAVGHL-X2)
IC50 (GRP receptor; [3]): 6.8 nM

CCCCCOC(=O)[C@H](CC(C)C)NC(=O)[C@H](Cc1c[nH]cn1)NC(=O)CNC(=O)[C@@H](NC(=O)[C@H](C)NC(=O)[C@H](Cc1c[nH]c2ccccc12)NC(=O)[C@H](Cc1c[nH]cn1)NC(C)=O)C(C)C [AcHisTrpAlaValGlyHisLeu--O(CH2)4 CH3] (Ac-HWAVGHL-X1)
IC50 (GRP receptor; [3]): 12.4 nM

CC(=O)N[C@@H](Cc1c[nH]cn1)C(=O)N[C@@H](Cc1c[nH]c2ccccc12)C(=O)N[C@@H](C)C(=O)N[C@H](C(=O)NCC(=O)N[C@@H](Cc1c[nH]cn1)C(=O)N[C@@H](CC(C)C)C(=O)OCc1ccccc1)C(C)C [AcHisTrpAlaValGlyHisLeu--OCH2 C6 H5] (Ac-HWAVGHL-OBn)
IC50 (GRP receptor; [3]): 5.4 nM

COC(=O)[C@H](CC(C)C)NC(=O)[C@H](Cc1c[nH]cn1)NC(=O)CNC(=O)[C@@H](NC(=O)[C@H](C)NC(=O)[C@H](Cc1c[nH]c2ccccc12)NC(=O)[C@H](Cc1c[nH]cn1)NC(C)=O)C(C)C [AcHisTrpAlaValGlyHisLeu--OCH3] (Ac-HWAVGHL-OMe)
IC50 (GRP receptor; [3]): 7.7 nM

CCOC(=O)[C@H](CC(C)C)NC(=O)[C@H](Cc1c[nH]cn1)NC(=O)CNC(=O)[C@@H](NC(=O)[C@H](C)NC(=O)[C@H](Cc1c[nH]c2ccccc12)NC(=O)[C@H](Cc1c[nH]cn1)NC(C)=O)C(C)C [N-acetyl His Trp Ala Val Gly His Leu-OCH2 CH3] (Ac-HWAVGHL-OEt)
IC50 (GRP receptor; average of 6 experiments): 3.9 nM
IC50 (Swiss 3T3 cells [1]; average of 2 experiments, read-out: Mitogenic Inhibition IC50): 15 nM
IC50 (H345 SCLC cells): 400 nM
Mitogenic Stimulation (Swiss 3T3 cells [2]; at concentrations up to 30 μM): none

Ac-HWAVGHL-NH2 [Ac--His--Trp--Ala--Val--Gly--His--LeuNH2]
EC50 (GRP receptor): 2000 nM
EC50 (Swiss 3T3 cells [1]): 3000 nM
EC50 (Swiss 3T3 cells [2]): > 100000 nM

HWAVGHL-NH2 [His--Trp--Ala--Val--Gly--His--LeuNH2]
EC50 (GRP receptor): 20000 nM
EC50 (Swiss 3T3 cells [1]): 50000 nM
EC50 (Swiss 3T3 cells [2]): > 100000 nM
